Source: US20260297027A1, “Non-Peptide Small Molecule FGF14:Nav1.6 Channel Complex Protein-Protein Interaction Modulators” (The Board of Regents of The University of Texas System, priority 2023, published 2026)
Entries after “also recorded” stand apart in the source; their conditions may differ.

Key:
FGF14 = target: T1, FGF14 (Homo sapiens, UniProt Q92915); test: Surface plasmon resonance (SPR), FGF14; format: binding
T1 sequence (Q92915 1-252 isoform Q92915-2): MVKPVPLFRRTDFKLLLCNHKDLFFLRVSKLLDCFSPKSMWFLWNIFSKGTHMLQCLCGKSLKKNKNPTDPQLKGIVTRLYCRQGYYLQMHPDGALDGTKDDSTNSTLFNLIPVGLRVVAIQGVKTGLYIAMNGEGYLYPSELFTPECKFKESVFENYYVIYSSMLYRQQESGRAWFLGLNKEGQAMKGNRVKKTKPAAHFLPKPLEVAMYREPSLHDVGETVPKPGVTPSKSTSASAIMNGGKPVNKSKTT
Experimental: (§1) Secondary bioactivity assays: Surface plasmon resonance (SPR). Analogues were then tested using SPR against FGF14 and Nav1.6-C-terminal tail purified proteins, the gold standard for protein binding studies. SPR experiments were used to quantitatively assess the binding affinity of analogues, serving as both a secondary bioactivity assay to determine accurate binding affinities for protein:ligand interactions via KD, Kon and Koff, as well as to assess the compound's ability to disrupt PPI. The reliability of the model, goodness of fit, and reported kinetic and binding constants were validated by varying flow rates, immobilization densities, or different chips. Statistical analysis was conducted by visually inspecting the goodness of fit of the data from the residuals. Additionally, c2 was used as a global measure for residual noise; standard deviation was used to report errors in measurements by repeating the experiment at least three times.
FIGS. 2A and 2B summarize selectivity and orthogonal validation of hits from the screening assay. […] Compounds that modulated complex assembly by ≥25% were excluded from further studies. Referring to FIG. 2B, the remaining 5 selective hits were then quantitatively assessed using SPR. Binding sensorgrams are shown for FGF14 (left) and Nav1.6 (middle) and normalized steady-state saturation plots (right) reveal differences in compound:protein binding affinities. Kinetic analysis of each ligand/analyte interaction was obtained by fitting the response data to the simplest Langmuir 1:1 interaction model (KD=koff/kon).
Referring to FIG. 2B, the remaining 5 selective hits were then quantitatively assessed using SPR. Binding sensorgrams are shown for FGF14 (left) and Nav1.6 (middle) and normalized steady-state saturation plots (right) reveal differences in compound:protein binding affinities. Kinetic analysis of each ligand/analyte interaction was obtained by fitting the response data to the simplest Langmuir 1:1 interaction model (KD=koff/kon).

[1] = test system: Nav1.6 (cells stably expressing Nav1.6 and FGF14-GFP); test: Patch-clamp electrophysiology in heterologous cells expressing Nav1.6 and FGF14; format: cell-based; settings: 1 μM
Experimental: (§2) Confirmatory assays: Automated and manual patch-clamp electrophysiology in heterologous cells. Patch-clamp electrophysiology is a rigorous, sophisticated confirmatory and orthogonal assay that serves to assess compound functional activity, mechanism of action, specificity, and selectivity toward various Nav isoforms. It is highly predictive of in vivo efficacy of compounds. In this assay, compounds are tested in cells stably expressing FGF14 and Nav1.6 or other relevant iFGF:Nav channel pairs. Initially screened with an automated planar patch-clamp system, compounds were tested with an 8-point dose-response in 384-well plates with a throughput of >2,000 data sets/week. Compounds were then confirmed with manual patch-clamp at targeted concentrations. A multitude of physiological parameters of Nav channels including Na+ current amplitude, kinetics, voltage-dependence, use-dependency, and time-dependency reflecting the channel closed, opened, and inactivated states were automatically measured using specialized software (i.e., CLAMPEX). Data were typically derived from n=10-20 recordings, N=3 batches of cells. Data were compared using either Student's t-test or two-way ANOVA mixed model.
(§3) Functional activity of Compound PW01028. To study compound PW01028 functional activity against Nav1.6-encoded currents were studied in heterologous cells stably expressing Nav1.6 and/or FGF14-GFP (FIGURE). […]

[2] = test system: medium spiny neurons (MSN), Fgf14^−/−; test: Patch-clamp electrophysiology in brain slices, MSN of NAc from Fgf14-/- mice; format: cell-based; settings: n=7-8/group, p>0.05, in words
Experimental: (§4) Patch-clamp electrophysiology in brain slices. This assay provides a critical confirmatory step from the heterologous cell to the native system. With this assay, selected compounds were tested (typically, 3 concentrations) for their modulatory effects on MSN firing and Na+ currents using current clamp and voltage clamp recordings Parameters of interest included action potential threshold, amplitude, rise time, firing frequency, amplitude of Na+ currents and passive properties (i.e., Rseries, Rinput, Vm). Not only is this assay predictive of a compound's in vivo activity, it provides an assessment of potential toxicity and side effects based on secondary measurements (i.e., frequency, amplitude, and kinetics of synaptic potentials, Rinput, Vm). This assay was also used as the first target validation step in native tissue as compounds are concomitantly tested in neurons from Fgf14^−/− mice. Recordings were conducted from at least N=3 animals, n=10-15 recordings; effect is calculated using ANOVA mixed model.
(§5) Target validation of compound PW01028 in NAc slices.

[3] = test system: medium spiny neurons (MSN), Fgf14^+/+; test: Patch-clamp electrophysiology in brain slices, MSN of NAc from Fgf14+/+ mice; format: cell-based; settings: 1 micromolar, in words
Experimental: as §4, §5

FGF14:Nav1.6 complex = target: T2, FGF14:Nav1.6 complex (Homo sapiens, UniProt Q92915+Q9UQD0); test: Split-luciferase complementation assay (LCA); format: cell-based
T2 construct: split firefly luciferase complementation
T2 sequence (Q9UQD0 1763-1980 limits assumed, one chain of several): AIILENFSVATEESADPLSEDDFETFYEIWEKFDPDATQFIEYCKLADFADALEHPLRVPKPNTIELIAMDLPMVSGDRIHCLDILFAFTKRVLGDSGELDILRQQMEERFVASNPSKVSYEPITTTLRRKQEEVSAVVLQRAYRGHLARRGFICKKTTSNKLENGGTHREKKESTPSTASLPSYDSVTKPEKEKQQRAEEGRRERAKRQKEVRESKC
Source text: To identify small molecule probes targeting the FGF14:Nav1.6 PPI interface, the FGF14:Nav1.6 complex was reconstituted using the split-luciferase complementation assay (LCA), and a candidate pool of ~45,000 commercially available compounds was screened. An established screening pipeline was employed to validate hits. […] FIG. 1B summarizes exclusion of compounds based on the CellTiter Blue (CTB) cell viability fluorescence assay.
Primary assays: Split-luciferase complementation assay (LCA). The primary assay to detect FGF14:Nav1.6 complex formation in real-time in living cells is the split-luciferase complementation assay (LCA), which has been designed and successfully implemented specifically to study PPI between the Nav channel and iFGFs. With LCA, in-cell reconstitution of the FGF14:Nav1.6 channel complex was detected upon addition of the D-luciferin substrate, as a robust light signal representing the strength of interaction between the two binding partners. […] The high signal-to-noise ratio, favorable dynamic range, and reversibility of luminescence-based signals make LCA the ideal for HTS of potential regulators, as well as rapid dose-dependency studies (≥8 concentrations) to help guide subsequent in-depth hit validation using more labor-intensive approaches. […]

[4] = target: T3, Nav1.6 (HEK-Nav1.6 expressing GFP control) (Homo sapiens, UniProt Q9UQD0); test: Patch-clamp electrophysiology in HEK-Nav1.6 cells expressing the GFP control construct; format: cell-based; settings: HEK-Nav1.6 expressing the GFP control construct; in words
T3 construct: patch clamp
T3 sequence (Q9UQD0 whole entry): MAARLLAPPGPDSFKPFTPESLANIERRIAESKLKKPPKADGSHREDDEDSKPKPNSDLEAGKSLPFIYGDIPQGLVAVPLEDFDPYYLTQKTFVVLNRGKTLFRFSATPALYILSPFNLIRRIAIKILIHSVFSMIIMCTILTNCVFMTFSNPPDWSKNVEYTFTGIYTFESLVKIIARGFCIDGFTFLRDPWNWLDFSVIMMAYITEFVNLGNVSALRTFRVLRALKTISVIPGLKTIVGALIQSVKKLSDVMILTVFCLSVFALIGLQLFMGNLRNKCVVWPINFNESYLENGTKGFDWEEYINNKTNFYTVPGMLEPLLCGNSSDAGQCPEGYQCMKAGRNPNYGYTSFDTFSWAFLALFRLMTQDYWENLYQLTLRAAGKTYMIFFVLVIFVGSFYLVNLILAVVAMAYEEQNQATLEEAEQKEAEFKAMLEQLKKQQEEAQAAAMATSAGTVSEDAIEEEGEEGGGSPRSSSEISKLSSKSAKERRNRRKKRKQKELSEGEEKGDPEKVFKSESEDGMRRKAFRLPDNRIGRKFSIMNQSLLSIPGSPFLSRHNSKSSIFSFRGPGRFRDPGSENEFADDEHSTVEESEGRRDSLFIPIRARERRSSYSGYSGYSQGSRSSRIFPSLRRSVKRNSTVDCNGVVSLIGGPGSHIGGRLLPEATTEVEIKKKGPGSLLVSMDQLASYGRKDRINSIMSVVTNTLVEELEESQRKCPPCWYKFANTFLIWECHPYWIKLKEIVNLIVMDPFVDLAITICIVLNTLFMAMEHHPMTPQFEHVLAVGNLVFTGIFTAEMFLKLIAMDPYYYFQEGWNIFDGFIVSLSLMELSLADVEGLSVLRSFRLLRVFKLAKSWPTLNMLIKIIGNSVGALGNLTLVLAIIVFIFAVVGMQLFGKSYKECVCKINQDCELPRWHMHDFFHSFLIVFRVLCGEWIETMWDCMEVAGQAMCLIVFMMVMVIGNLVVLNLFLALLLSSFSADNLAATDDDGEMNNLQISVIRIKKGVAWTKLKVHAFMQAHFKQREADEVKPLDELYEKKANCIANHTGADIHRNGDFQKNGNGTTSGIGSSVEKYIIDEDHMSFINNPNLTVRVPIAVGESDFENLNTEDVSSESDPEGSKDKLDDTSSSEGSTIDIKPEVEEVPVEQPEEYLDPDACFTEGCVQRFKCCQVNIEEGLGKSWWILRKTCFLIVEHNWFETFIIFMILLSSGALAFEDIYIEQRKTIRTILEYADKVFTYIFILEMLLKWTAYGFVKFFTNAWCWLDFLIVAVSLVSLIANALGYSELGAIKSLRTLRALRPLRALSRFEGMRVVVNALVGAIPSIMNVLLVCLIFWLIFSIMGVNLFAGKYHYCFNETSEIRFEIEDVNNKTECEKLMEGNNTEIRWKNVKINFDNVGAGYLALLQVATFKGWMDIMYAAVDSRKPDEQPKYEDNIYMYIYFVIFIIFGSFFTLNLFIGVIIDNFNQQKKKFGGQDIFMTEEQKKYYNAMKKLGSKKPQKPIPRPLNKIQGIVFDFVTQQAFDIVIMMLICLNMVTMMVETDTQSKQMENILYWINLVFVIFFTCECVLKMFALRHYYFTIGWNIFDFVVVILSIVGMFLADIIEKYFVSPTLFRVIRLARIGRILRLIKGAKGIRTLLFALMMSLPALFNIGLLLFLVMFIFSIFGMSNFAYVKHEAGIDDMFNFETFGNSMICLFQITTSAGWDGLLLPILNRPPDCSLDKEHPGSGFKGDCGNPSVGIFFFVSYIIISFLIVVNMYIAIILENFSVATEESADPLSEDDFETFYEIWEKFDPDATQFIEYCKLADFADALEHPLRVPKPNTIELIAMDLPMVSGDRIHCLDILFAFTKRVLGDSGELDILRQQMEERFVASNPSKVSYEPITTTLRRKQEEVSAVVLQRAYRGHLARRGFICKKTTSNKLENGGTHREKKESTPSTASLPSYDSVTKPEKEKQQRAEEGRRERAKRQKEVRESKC
Experimental: as §2, §3

Nav1.6 = target: T4, Nav1.6 (Homo sapiens, UniProt Q9UQD0); test: Surface plasmon resonance (SPR), Nav1.6-C-terminal tail; format: binding; settings: Langmuir 1:1 interaction model (KD=koff/kon)
T4 construct: SPR against FGF14 and Nav1.6-C-terminal tail purified proteins
T4 sequence (Q9UQD0 1767-1912 limits assumed): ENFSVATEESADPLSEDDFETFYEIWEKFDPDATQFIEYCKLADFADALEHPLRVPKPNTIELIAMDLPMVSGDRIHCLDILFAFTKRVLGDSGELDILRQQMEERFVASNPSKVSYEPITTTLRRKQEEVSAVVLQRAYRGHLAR
Experimental: as §1
FIGS. 2A and 2B summarize selectivity and orthogonal validation of hits from the screening assay. […] Compounds that modulated complex assembly by ≥25% were excluded from further studies. Referring to FIG. 2B, the remaining 5 selective hits were then quantitatively assessed using SPR. […]
Referring to FIG. 2B, the remaining 5 selective hits were then quantitatively assessed using SPR. […]

CCOC(=O)c1cccc(NC(=O)Cn2cc(CO)c3ccccc32)c1 [PW01028, Ethyl 3-(2-(3-(hydroxymethyl)-1H-indol-1-yl)acetamido)benzoate]
binding affinity to FGF14 (FGF14; in words): nanomolar binding affinity | ligand binding to the FGF14 R117 residue (FGF14; in words): evidence for ligand binding to the FGF14^R117 residue | depolarizing shift in the voltage-dependence of steady-state inactivation of the transient Na+ current ([1]; FGF14-mediated regulatory effects on Nav1.6): +15 mV | effect on voltage-dependence (V1/2) of steady-state inactivation ([1]; in words, n=6-10 cells/group): markedly shifted V1/2 and steady-state inactivation to a more depolarized potential; also recorded: shifts voltage-dependence of steady-state inactivation of Na+ currents | effect on MSN firing / Na+ currents [2]: inactive in MSN from Fgf14^−/− mice; also recorded: Lack of effect; also recorded: absent in Fgf14^−/− mice | effect on Nav channel closure / Na+ currents in MSN ([3]; Fgf14+/+ (wild-type) mice): potentiated MSN firing and transient Na^+ currents (INaP); also recorded: hampered Nav channel closure, prolonged Na+ currents | effect on MSN firing ([3]; Fgf14+/+ mice, n=19-20/group, p<0.0001): potentiated MSN firing; also recorded: increases firing in MSN; also recorded: potentiated intrinsic firing | IC50 (FGF14:Nav1.6 complex; LCA, read-out: IC50 for modulation of FGF14:Nav1.6 complex formation): ~0.25 µM | potency in the LCA dose-response studies (FGF14:Nav1.6 complex; dose-response, in words): nanomolar potency | functional effects [4]: no functional effects

Cc1cccc(NC(=O)Cn2cc(CO)c3ccccc32)c1 [Compound 7605086, 2-(3-(Hydroxymethyl)-1H-indol-1-yl)-N-(m-tolyl)acetamide]
Kd (FGF14; Langmuir 1:1 interaction model (KD=koff/kon)): 2.9 µM | Kd (Nav1.6): 13.6 µM
